In data set [1] the target is IL-17RA/IL17RC dimerization induced by IL-17A (Homo sapiens, UniProt Q16552). Nature of the data set: IL-17RA/IL17RC dimerization assay in response to IL-17A (PathHunter Cytokine Receptor Assay). It is filed as cell-based. Conditions: IL-17A at EC80; read-out: IC50 in IL-17RA/IL7RC dimerization assay. An outline of the steps:
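PathHunter cells with IL-17RA and IL-17RC tagged for β-galactosidase complementation were preincubated 60 min with peptide (1% vehicle). IL-17A was then added at EC80 for 6–16 h at 37 °C, and chemiluminescence was read. Inhibition is relative to the EC80 and vehicle controls.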

Data set [2] can be described thus: Isoelectric point, log D and log P (SiriusT3). Conditions: for IP (isoelectric point): 25±1° C., 0.15 M KCl. Type of data set: physicochemical.
Data set [3] is classed as physicochemical. Conditions: pH 7.8. An outline of the steps:
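Peptides dissolved in phosphate buffer pH 7.8 as 10 mM stocks (more dilute for less soluble ones) and stored at 25 °C. Content measured by reversed-phase UHPLC (C18, 0.5% formic acid water/acetonitrile gradient, DAD 220-400 nm, ESI-MS ion trap) after 1:100 dilution to 100 μM, against 100 μM standards, at T0, 3 days and 1 week.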

Data set [4] in a line: Permeability test across stratified human corneal epithelial cells. Type of data set: in vitro ADME. Conditions: Permeability (Papp). As for the experimental part:
The objective of this study was to evaluate the apparent permeability coefficient (Papp) value of the peptides across stratified human corneal epithelial cells. All peptides were tested at 50 μM in duplicate.
In particular, human corneal epithelial cells (hCEPIC) were stratified on Transwell cell culture inserts (Corning, N.Y., USA). The permeation experiments were performed taking samples from receiver chambers at 5, 30, 60 minutes time points and from donor chambers at the same time points. Each aliquot collected was analyzed by HPLC instrument (Knauer) equipped with C18 Vertex Plus Column (Knauer) thermostatically controlled at 40° C. The rate (apparent permeability coefficient, Papp) of the study compounds was calculated and compared to the Papp values of the low and high permeability markers, 6-carboxyfluorescein and Rhodamine B, respectively.
The apparent permeability coefficient (Papp) was calculated according to Equation: Papp=(I/A*C0)(dM/dt)
where dM/dt is the flux (nanomoles per second) across the cell layers;
A (square centimeters) is the exposed surface area of the insert membrane;
C0 is the initial drug concentration (micromolar) in the donor compartment at t=0 (Xiang et al., Drug Metab Dispos. 2009 May; 37(5):992-8.

The mark [5] stands for this setting: octanol/ISA water, read-out: logP.
Setting [6] is: pH 7.4, pH 7.4, octanol/ISA water, read-out: Log D (7.4).

This note sets out measurements from US11236129B2, “IL-17A binding peptides and medical uses thereof” (Dompe' Farmaceutici S.P.A., priority 2018, dated 2022).

Read-outs that look alike come from different tables or passages of the source. Residues, ends and D or L forms follow the SMILES beside them.

Chain of IL-17RA/IL17RC dimerization induced by IL-17A (Q16552 24-155): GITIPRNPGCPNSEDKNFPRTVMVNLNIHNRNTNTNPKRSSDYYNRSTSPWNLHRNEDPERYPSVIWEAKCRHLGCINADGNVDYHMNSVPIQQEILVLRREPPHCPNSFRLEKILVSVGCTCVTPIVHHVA

As usually defined, the logP is a log measure of how a compound divides between an organic and an aqueous phase. Broadly, the solubility is the dissolved amount per volume that the medium holds. A high value points to much dissolved substance. The term Papp denotes a coefficient for how fast a substance crosses the barrier. Low values mean poor permeation, high ones ready permeation. On to `CC[C@H](C)[C@H](NC(C)=O)C(=O)N[C@@H](Cc1c[nH]cn1)C(=O)N[C@H](C(=O)N[C@H](C(=O)N[C@H](C(=O)N1CCC[C@H]1C(=O)N[C@@H](C)C(=O)N[C@@H](CC(=O)O)C(=O)N[C@@H](CC(C)C)C(=O)N[C@@H](Cc1c[nH]c2ccccc12)C(=O)N[C@@H](CC(=O)O)C(=O)N[C@@H](Cc1c[nH]c2ccccc12)C(=O)N[C@H](C(=O)N[C@@H](CCC(=O)O)C(=O)N[C@@H](CCCCN)C(N)=O)[C@@H](C)CC)[C@@H](C)CC)[C@@H](C)O)C(C)C` [SEQ ID NO: 11] (Ac-IHVTIPADLWDWIEK-NH2), for which the IC50 in data set [1] is under 400 nM. For the same molecule, the “IP (isoelectric point)” value in data set [2] was determined as 4.25. In data set [2] (logP), the logP turned out to be 1.05. In addition, the logD in data set [2] (pH 7.4, Log D (7.4)) was -2.92. Besides, in data set [3], the solubility was over 10 mM. For the same molecule, the Papp in data set [4] came to 28 ×10⁻⁶ cm/s.
On to `CC[C@H](C)[C@H](NC(C)=O)C(=O)N[C@@H](Cc1c[nH]cn1)C(=O)N[C@H](C(=O)N[C@H](C(=O)N[C@H](C(=O)N1CCC[C@H]1C(=O)N[C@@H](C)C(=O)N[C@@H](CC(=O)O)C(=O)N[C@@H](CC(C)C)C(=O)N[C@@H](Cc1c[nH]c2ccccc12)C(=O)N[C@@H](CC(=O)O)C(=O)N[C@@H](Cc1c[nH]c2ccccc12)C(=O)N[C@H](C(=O)N[C@@H](CCCNC(=N)N)C(=O)N[C@@H](CCCNC(=N)N)C(N)=O)C(C)C)[C@@H](C)CC)[C@@H](C)O)C(C)C` [SEQ ID NO: 14] (Ac-IHVTIPADLWDWVRR-NH2), for which the IC50 in data set [1] is under 400 nM. For the same molecule, the “IP (isoelectric point)” value in data set [2] was determined as 8.99. In addition, the logP in data set [2] (logP) is -5.4. For the same molecule, the logD in data set [2] (pH 7.4, Log D (7.4)) was -2.8. In data set [3], this molecule came in with a solubility of over 10 mM. This molecule also came in with a Papp in data set [4] of 28.9 ×10⁻⁶ cm/s.
Turning to `CC[C@H](C)[C@H](NC(=O)[C@H](Cc1c[nH]c2ccccc12)NC(=O)[C@H](CCC(=O)O)NC(=O)[C@H](Cc1ccc(O)cc1)NC(=O)[C@H](CC(C)C)NC(=O)[C@H](CC(=O)O)NC(=O)[C@H](C)NC(=O)[C@@H]1CCCN1C(=O)[C@@H](NC(=O)[C@@H](NC(=O)[C@@H](NC(=O)[C@H](CCSC)NC(=O)[C@@H](NC(=O)CNC(=O)[C@H](C)NC(=O)CNC(=O)[C@@H]1CCCN1C(=O)[C@@H](NC(C)=O)C(C)C)C(C)C)C(C)C)[C@@H](C)O)[C@@H](C)CC)C(=O)N[C@@H](CCC(=O)O)C(=O)N[C@@H](CCC(=O)O)C(N)=O` [SEQ ID NO: 35] (Ac-VPGAGVMVTIPADLYEWIEE-NH2), the IC50 in data set [1] is under 1000 nM. The “IP (isoelectric point)” value in data set [2] is recorded as 5.14. The log partition coefficient (logP) in data set [2] (setting [5]) was -5.43. Moreover, the logD in data set [2] (setting [6]) is -3.52. The same molecule came in with a solubility in data set [3] of over 10 mM.
Take `CC[C@H](C)[C@H](NC(=O)[C@H](Cc1c[nH]c2ccccc12)NC(=O)[C@H](CCC(=O)O)NC(=O)[C@H](Cc1ccc(O)cc1)NC(=O)[C@H](CC(C)C)NC(=O)[C@H](CC(=O)O)NC(=O)[C@H](C)NC(=O)[C@@H]1CCCN1C(=O)[C@@H](NC(=O)[C@@H](NC(=O)[C@@H](NC(=O)[C@H](CCSC)NC(=O)[C@@H](NC(=O)CNC(=O)[C@H](CCCCN)NC(=O)CNC(=O)[C@@H]1CCCN1C(=O)[C@@H](NC(C)=O)C(C)C)C(C)C)C(C)C)[C@@H](C)O)[C@@H](C)CC)C(=O)N[C@@H](CCC(=O)O)C(=O)N[C@@H](CCC(=O)O)C(N)=O` [SEQ ID NO: 36] (Ac-VPGKGVMVTIPADLYEWIEE-NH2): in data set [1], the IC50 was under 1000 nM. In addition, the “IP (isoelectric point)” value in data set [2] worked out at 8.13. Besides, the logP in data set [2] (setting [5]) is -1.09. Besides, in data set [2] (setting [6]), the logD is -1.24. Besides, in data set [3], the solubility was at least 0.1 mM.
With `CC[C@H](C)[C@H](NC(=O)[C@H](Cc1c[nH]c2ccccc12)NC(=O)[C@H](CCC(=O)O)NC(=O)[C@H](Cc1ccc(O)cc1)NC(=O)[C@H](CC(C)C)NC(=O)[C@H](CC(=O)O)NC(=O)[C@H](C)NC(=O)[C@@H]1CCCN1C(=O)[C@@H](NC(=O)[C@@H](NC(=O)[C@@H](NC(=O)[C@H](CCSC)NC(=O)[C@@H](NC(C)=O)C(C)C)C(C)C)[C@@H](C)O)[C@@H](C)CC)C(=O)N[C@@H](CCC(=O)O)C(=O)N[C@@H](CCC(=O)O)C(=O)N[C@H](C(=O)N1CCC[C@H]1C(=O)NCC(=O)N[C@@H](C)C(=O)NCC(=O)N[C@H](C(=O)N1CCC[C@H]1C(=O)NCC(=O)N[C@@H](C)C(=O)NCC(N)=O)C(C)C)C(C)C` [SEQ ID NO: 37] (Ac-VMVTIPADLYEWIEEVPGAGVPGAG-NH2), the IC50 in data set [1] was under 200 nM. Moreover, the “IP (isoelectric point)” value in data set [2] worked out at 5.14. In addition, the logD in data set [2] (setting [6]) is -3.9. This molecule also registered a solubility in data set [3] of over 10 mM.
With `CC[C@H](C)[C@H](NC(=O)[C@H](Cc1c[nH]c2ccccc12)NC(=O)[C@H](CCC(=O)O)NC(=O)[C@H](Cc1ccc(O)cc1)NC(=O)[C@H](CC(C)C)NC(=O)[C@H](CC(=O)O)NC(=O)[C@H](C)NC(=O)[C@@H]1CCCN1C(=O)[C@@H](NC(=O)[C@@H](NC(=O)[C@@H](NC(=O)[C@H](CCSC)NC(=O)[C@@H](NC(=O)CNC(=O)[C@H](CC(=O)O)NC(=O)CNC(=O)[C@@H]1CCCN1C(=O)[C@@H](NC(C)=O)C(C)C)C(C)C)C(C)C)[C@@H](C)O)[C@@H](C)CC)C(=O)N[C@@H](CCC(=O)O)C(=O)N[C@@H](CCC(=O)O)C(N)=O` [SEQ ID NO: 39] (Ac-VPGDGVMVTIPADLYEWIEE-NH2), the IC50 in data set [1] is under 200 nM. In data set [2], the “IP (isoelectric point)” value was determined as 4.2. Further, the logP in data set [2] (setting [5]) is -5.36. Moreover, the logD in data set [2] (setting [6]) is -2.86. Further, the solubility in data set [3] is over 10 mM.
The corresponding values for `CC[C@H](C)[C@H](NC(=O)[C@H](Cc1c[nH]c2ccccc12)NC(=O)[C@H](CCC(=O)O)NC(=O)[C@H](Cc1ccc(O)cc1)NC(=O)[C@H](CC(C)C)NC(=O)[C@H](CC(=O)O)NC(=O)[C@H](C)NC(=O)[C@@H]1CCCN1C(=O)[C@@H](NC(=O)[C@@H](NC(=O)[C@@H](NC(=O)[C@H](CCSC)NC(=O)[C@@H](NC(C)=O)C(C)C)C(C)C)[C@@H](C)O)[C@@H](C)CC)C(=O)N[C@@H](CCC(=O)O)C(=O)N[C@@H](CCC(=O)O)C(=O)N[C@H](C(=O)N1CCC[C@H]1C(=O)NCC(=O)N[C@@H](CC(=O)O)C(=O)NCC(N)=O)C(C)C` [SEQ ID NO: 40] (Ac-VMVTIPADLYEWIEEVPGDG-NH2) are under 200 nM, 4.21, -4.93, -3.5 and over 10 mM.
Take `CC(=O)N[C@@H](CC(=O)O)C(=O)N[C@@H](CC(C)C)C(=O)N[C@@H](CO)C(=O)N[C@@H](C)C(=O)N[C@H](C(=O)N[C@H]1CSSC[C@@H](C(=O)N[C@@H](Cc2c[nH]cn2)C(N)=O)NC(=O)[C@H](CCC(=O)O)NC(=O)[C@@H]2CCCN2C(=O)[C@H](CC(=O)O)NC(=O)[C@H](Cc2c[nH]c3ccccc23)NC(=O)[C@@H]2CCCN2C(=O)[C@H](Cc2ccccc2)NC(=O)[C@H](C)NC(=O)[C@H](Cc2c[nH]c3ccccc23)NC1=O)C(C)C` [SEQ ID NO: 41]: the IC50 in data set [1] was under 1000 nM. Also, the “IP (isoelectric point)” value in data set [2] came out at 3.54. In addition, the logP in data set [2] (setting [5]) came to 1.24. In data set [2] (setting [6]), the logD was -1.94. The same molecule returned a solubility in data set [3] of over 10 mM.
`CC[C@H](C)[C@H](NC(=O)[C@@H](NC(=O)[C@H](Cc1ccccc1)NC(=O)[C@H](Cc1c[nH]cn1)NC(=O)[C@@H](NC(C)=O)C(C)C)[C@@H](C)O)C(=O)N1CCC[C@H]1C(=O)N[C@@H](C)C(=O)N[C@@H](CC(=O)O)C(=O)N[C@@H](CC(C)C)C(=O)N[C@@H](Cc1c[nH]c2ccccc12)C(=O)N[C@@H](CCC(=O)O)C(=O)N[C@@H](Cc1c[nH]c2ccccc12)C(=O)N[C@H](C(=O)N[C@@H](CCCNC(=N)N)C(=O)N[C@@H](CCCNC(=N)N)C(N)=O)C(C)C` [SEQ ID NO: 112] (Ac-VHFTIPADLWEWVRR-NH2): the IC50 in data set [1] was under 500 nM. For the same molecule, the “IP (isoelectric point)” value in data set [2] came to 8.99. Further, the log partition coefficient (logP) in data set [2] (setting [5]) was -4.76. Also, in data set [3], the solubility is under 0.05 mM.
Take `CC(=O)N[C@H](C(=O)N[C@@H](Cc1c[nH]cn1)C(=O)N[C@H](C(=O)N[C@H](C(=O)N[C@@H](Cc1ccccc1)C(=O)N1CCC[C@H]1C(=O)N[C@@H](C)C(=O)N[C@@H](CC(=O)O)C(=O)N[C@@H](CC(C)C)C(=O)N[C@@H](Cc1c[nH]c2ccccc12)C(=O)N[C@@H](CCC(=O)O)C(=O)N[C@@H](Cc1c[nH]c2ccccc12)C(=O)N[C@H](C(=O)N[C@@H](CCCNC(=N)N)C(=O)N[C@@H](CCCNC(=N)N)C(N)=O)C(C)C)[C@@H](C)O)C(C)C)C(C)C` [SEQ ID NO: 114] (Ac-VHVTFPADLWEWVRR-NH2): the IC50 in data set [1] is under 500 nM. The “IP (isoelectric point)” value in data set [2] worked out at 8.99. For the same molecule, the log partition coefficient (logP) in data set [2] (setting [5]) was -0.21. For the same molecule, the logD in data set [2] (setting [6]) is -3.59. Moreover, the solubility in data set [3] is under 0.05 mM.
